These are literature values, as cited in PMC6611711 (Molecular cancer therapeutics, 2018).

The test system of data set [1] is tumor xenograft. Conditions: mice.
Data set [2] concerns panel of cancer cell lines. Conditions: inhibition of choline kinase alpha (CKα).

On to `CN(C)c1cc[n+](CCCCCCCCCCCC[n+]2ccc(N(C)C)cc2)cc1.[Br-].[Br-]` [ICL-CCIC-0019], for which the Tumor xenograft growth result in data set [1] is listed as “inhibited tumor xenograft growth in mice”. The “Growth of a panel of cancer cell lines” value in data set [2] is listed as “suppressed growth of a panel of cancer cell lines”.
